Assays:
[1] = system: rats which have learnt to self-administer nicotine intravenously; test: self-administration of nicotine in rats (model predicting effects on nicotine dependence); assay type: in vivo; settings: intravenous nicotine self-administration
From the text: The effects of compound A were studied in rats on a model which predicts the effects on nicotine dependence: the self-administration of nicotine according to W.T. Corrigal and al. Psychopharmacology, 1989, 99, 473-478.

[2] = system: individuals who smoked more than 15 cigarettes a day and who showed symptoms of nicotine dependence; test: double-blind placebo-controlled study of withdrawal from tobacco in smokers; assay type: in vivo, human; settings: 40 mg per day for 10 weeks, including 2 weeks before start of withdrawal; in particular during the last 4 weeks of treatment; confirmed by exhaled carbon monoxide and plasma cotinine
Experimental: The patients received 40 mg of compound A per day for 10 weeks, including 2 weeks before the start of the period of withdrawal from tobacco. […] The withdrawal from tobacco was confirmed by weekly measurement of the levels of carbon monoxide exhaled and of cotinine in the plasma.

SMILES: Cc1c(C(=O)NN2CCCCC2)nn(-c2ccc(Cl)cc2Cl)c1-c1ccc(Cl)cc1 [compound A, N-piperidino-5-(4-chloro-phenyl)-1-(2,4-dichlorophenyl)-4-methylpyrazole-3-carboxamide]
- number of nicotine injections ([1]; compound A at a dose of 0.3 mg/kg): reduces, in a statistically significant manner
- number of nicotine injections ([1]; compound A at a dose of 1 mg/kg): reduces, in a statistically significant manner
- level of withdrawal from tobacco versus placebo group [2]: greater level of withdrawal

Reference: US20050187253A1, “Medicinal kit to quit tobacco consumption comprising central cannabinoid receptor antagonist” (Sanofi-Aventis, priority 2000, published 2005)
